The text below walks through data of ChEMBL document CHEMBL2034905, “Synthesis of benzimidazolyl-1,3,4-oxadiazol-2ylthio-N-phenyl (benzothiazolyl) acetamides as antibacterial, antifungal and antituberculosis agents” (Eur J Med Chem, 2012).

Each structure is given as a SMILES string. Converted amounts (≈) assume the structure as drawn.

In assay [1] the test system is Mycobacterium tuberculosis. In words: Antituberculosis activity against Mycobacterium tuberculosis H37Rv by Lowenstein-Jensen method. It is filed as functional.
Assay [2] deals with Mycobacterium tuberculosis. In words: Antituberculosis activity against Mycobacterium tuberculosis H37Rv at 6.25 ug/ml by Lowenstein-Jensen method. It is filed as functional.
The subject of assay [3] is Staphylococcus aureus. In words: Antibacterial activity against Staphylococcus aureus MTCC 96 at 100 ug/disc by paper disc diffusion technique. The settings on record: read-out: IZ. The class given is functional.
In assay [4] the test system is Bacillus cereus. In words: Antibacterial activity against Bacillus cereus MTCC 430 at 100 ug/disc by paper disc diffusion technique. As to conditions: read-out: IZ. The class given is functional.
Assay [5] deals with Escherichia coli. In words: Antibacterial activity against Escherichia coli MTCC 739 at 100 ug/disc by paper disc diffusion technique. The class given is functional. As to conditions: read-out: IZ.
Assay [6] has as its system Pseudomonas aeruginosa. As to the kind of experiment: Antibacterial activity against Pseudomonas aeruginosa MTCC 741 at 100 ug/disc by paper disc diffusion technique. It is filed as functional. The settings on record: read-out: IZ.
Assay [7] deals with Klebsiella pneumoniae. In words: Antibacterial activity against Klebsiella pneumoniae MTCC 109 at 100 ug/disc by paper disc diffusion technique. It is filed as functional. The settings on record: read-out: IZ.
In assay [8] the test system is Salmonella typhi. In words: Antibacterial activity against Salmonella typhi MTCC 733 at 100 ug/disc by paper disc diffusion technique. The class given is functional, Salmonella enterica subsp. enterica serovar Typhi. The settings on record: Salmonella enterica, read-out: IZ.
The subject of assay [9] is Proteus vulgaris. In words: Antibacterial activity against Proteus vulgaris MTCC 1771 at 100 ug/disc by paper disc diffusion technique. It is filed as functional. As to conditions: read-out: IZ.
Assay [10] has as its system Shigella flexneri. In words: Antibacterial activity against Shigella flexneri MTCC 1457 at 100 ug/disc by paper disc diffusion technique. The class given is functional. As to conditions: read-out: IZ.
The subject of assay [11] is Staphylococcus aureus. In words: Antibacterial activity against Staphylococcus aureus MTCC 96 by agar streak dilution method. It is filed as functional.
Assay [12] relates to Bacillus cereus. As to the kind of experiment: Antibacterial activity against Bacillus cereus MTCC 430 by agar streak dilution method. It is filed as functional.
Assay [13] deals with Escherichia coli. In words: Antibacterial activity against Escherichia coli MTCC 739 by agar streak dilution method. It is filed as functional.
The test system of assay [14] is Pseudomonas aeruginosa. In words: Antibacterial activity against Pseudomonas aeruginosa MTCC 741 by agar streak dilution method. The class given is functional.
The subject of assay [15] is Klebsiella pneumoniae. As to the kind of experiment: Antibacterial activity against Klebsiella pneumoniae MTCC 109 by agar streak dilution method. The class given is functional.
Assay [16] concerns Salmonella typhi. As to the kind of experiment: Antibacterial activity against Salmonella typhi MTCC 733 by agar streak dilution method. It is filed as functional, Salmonella enterica subsp. enterica serovar Typhi. As to conditions: Salmonella enterica.
Assay [17] concerns Proteus vulgaris. As to the kind of experiment: Antibacterial activity against Proteus vulgaris MTCC 1771 by agar streak dilution method. It is filed as functional.
The subject of assay [18] is Shigella flexneri. In words: Antibacterial activity against Shigella flexneri MTCC 1457 by agar streak dilution method. It is filed as functional.
For assay [19], the system named is Aspergillus niger. As to the kind of experiment: Antifungal activity against Aspergillus niger MTCC 282 at 100 ug/disc by paper disc diffusion technique. It is filed as functional. The settings on record: read-out: IZ.
Assay [20] deals with Aspergillus fumigatus. As to the kind of experiment: Antifungal activity against Aspergillus fumigatus MTCC 343 at 100 ug/disc by paper disc diffusion technique. As to conditions: read-out: IZ. It is filed as functional.
Assay [21] relates to Aspergillus clavatus. In words: Antifungal activity against Aspergillus clavatus MTCC 1323 at 100 ug/disc by paper disc diffusion technique. It is filed as functional. The settings on record: read-out: IZ.
In assay [22] the test system is Candida albicans. In words: Antifungal activity against Candida albicans MTCC 183 at 100 ug/disc by paper disc diffusion technique. As to conditions: read-out: IZ. It is filed as functional.
The test system of assay [23] is Aspergillus niger. In words: Antifungal activity against Aspergillus niger MTCC 282 by agar streak dilution method. It is filed as functional.
Assay [24] concerns Aspergillus fumigatus. As to the kind of experiment: Antifungal activity against Aspergillus fumigatus MTCC 343 by agar streak dilution method. The class given is functional.
Assay [25] relates to Aspergillus clavatus. In words: Antifungal activity against Aspergillus clavatus MTCC 1323 by agar streak dilution method. The class given is functional.
In assay [26] the test system is Candida albicans. In words: Antifungal activity against Candida albicans MTCC 183 by agar streak dilution method. The class given is functional.
Assay [27] relates to Mycobacterium tuberculosis. In words: Antituberculosis activity against Mycobacterium tuberculosis H37Rv by BACTEC MGIT method. The class given is functional.

In the case of `O=C(CSc1nnc(Cn2cnc3ccccc32)o1)Nc1ccc(Cl)cc1`, the MIC came out at 25 µg/mL (≈ 62.5 µM) in assay [1]; 50 µg/mL (≈ 125 µM) in assay [11]; 50 µg/mL (≈ 125 µM) in assay [12]; 100 µg/mL (≈ 250 µM) in assay [13]; 12.5 µg/mL (≈ 31.3 µM) in assay [14]; 50 µg/mL (≈ 125 µM) in assay [15]. The MIC was determined as 100 µg/mL (≈ 250 µM) in assay [16]; 50 µg/mL (≈ 125 µM) in assay [17]; 12.5 µg/mL (≈ 31.3 µM) in assay [18]; 100 µg/mL (≈ 250 µM) in [23]; 100 µg/mL (≈ 250 µM) in assay [24]; 100 µg/mL (≈ 250 µM) in assay [25]. Also, the MIC was 100 µg/mL (≈ 250 µM) in assay [26] and over 6.25 µg/mL in assay [27]. Further, at 6.25 µg/mL the inhibition in assay [2] was 98%. For the same compound, the zone of inhibition at 100 µg/disc in assay [3] was 15 mm; in assay [4], 11 mm; in assay [5], 15 mm; in assay [6] it was 26 mm; in assay [7], 21 mm; in assay [8], 17 mm. Further, the zone of inhibition at 100 µg/disc in [9] is 20 mm; in [10], 22 mm; in [19], under 10 mm; in [20], 16 mm; in assay [21], 14 mm; in assay [22], 14 mm.
On to `CC(=O)Nc1ccc(NC(=O)CSc2nnc(Cn3cnc4ccccc43)o2)cc1`, for which the MIC in assay [1] stood at 100 µg/mL (≈ 237 µM); in assay [11], 100 µg/mL (≈ 237 µM); in assay [12], 100 µg/mL (≈ 237 µM); in assay [13], 50 µg/mL (≈ 118 µM); in assay [14], 100 µg/mL (≈ 237 µM); in [15], 100 µg/mL (≈ 237 µM). Moreover, the MIC in assay [16] was found to be 100 µg/mL (≈ 237 µM); in assay [17], 25 µg/mL (≈ 59.2 µM); in [18] it was 100 µg/mL (≈ 237 µM); in [23] it was 25 µg/mL (≈ 59.2 µM); in [24] it was 100 µg/mL (≈ 237 µM); in assay [25] it was 100 µg/mL (≈ 237 µM). For the same compound, the minimal inhibitory concentration (MIC) was 100 µg/mL (≈ 237 µM) in assay [26] and over 6.25 µg/mL in assay [27]. In [2], this compound gave an inhibition at 6.25 µg/mL of 95%. The zone of inhibition at 100 µg/disc in assay [3] is under 10 mm; in assay [4] it was 11 mm; in assay [5], 20 mm; in assay [6] it was 19 mm; in assay [7], 13 mm; in assay [8], under 10 mm. The zone of inhibition at 100 µg/disc in assay [9] was found to be 20 mm; in [10], 16 mm; in assay [19] it was 22 mm; in [20], 15 mm; in [21], 18 mm; in assay [22] it was 18 mm.
As to `O=C(CSc1nnc(Cn2cnc3ccccc32)o1)Nc1ccc(I)cc1`, the MIC in [1] is 250 µg/mL (≈ 509 µM); in assay [11], 50 µg/mL (≈ 102 µM); in [12] it was 100 µg/mL (≈ 204 µM); in assay [13], 100 µg/mL (≈ 204 µM); in assay [14], 25 µg/mL (≈ 50.9 µM); in assay [15], 50 µg/mL (≈ 102 µM). For the same compound, the MIC came to 100 µg/mL (≈ 204 µM) in assay [16]; 25 µg/mL (≈ 50.9 µM) in assay [17]; 50 µg/mL (≈ 102 µM) in [18]; 100 µg/mL (≈ 204 µM) in assay [23]; 100 µg/mL (≈ 204 µM) in assay [24]; 100 µg/mL (≈ 204 µM) in assay [25]. For the same compound, the results for the MIC in assay [26] and in assay [27] were 100 µg/mL (≈ 204 µM) and over 6.25 µg/mL, respectively. The inhibition at 6.25 µg/mL in [2] was determined as 95%. In addition, the zone of inhibition at 100 µg/disc in assay [3] amounted to 17 mm; in [4] it was 15 mm; in assay [5], 12 mm; in [6] it was 22 mm; in assay [7] it was 23 mm; in assay [8], 16 mm. Also, the zone of inhibition at 100 µg/disc was 22 mm in assay [9]; 20 mm in [10]; under 10 mm in [19]; 17 mm in assay [20]; 13 mm in [21]; 12 mm in [22].
`O=C(CSc1nnc(Cn2cnc3ccccc32)o1)Nc1nc2ccc([N+](=O)[O-])cc2s1`: the MIC in assay [1] amounted to 50 µg/mL (≈ 107 µM); in assay [11] it was 12.5 µg/mL (≈ 26.7 µM); in assay [12], 12.5 µg/mL (≈ 26.7 µM); in assay [13] it was 50 µg/mL (≈ 107 µM); in assay [14], 100 µg/mL (≈ 214 µM); in [15] it was 100 µg/mL (≈ 214 µM). Besides, the minimal inhibitory concentration (MIC) in assay [16] stood at 50 µg/mL (≈ 107 µM); in assay [17] it was 100 µg/mL (≈ 214 µM); in assay [18], 50 µg/mL (≈ 107 µM); in assay [23], 12.5 µg/mL (≈ 26.7 µM); in [24], 50 µg/mL (≈ 107 µM); in assay [25], 25 µg/mL (≈ 53.5 µM). The figures for the MIC in assay [26] and in assay [27] were 100 µg/mL (≈ 214 µM) and over 6.25 µg/mL, respectively. This compound returned an inhibition at 6.25 µg/mL in assay [2] of 98%. Besides, the zone of inhibition at 100 µg/disc in assay [3] stood at 21 mm; in assay [4] it was 25 mm; in assay [5] it was 18 mm; in [6] it was 16 mm; in [7], 16 mm; in assay [8], 19 mm. Moreover, the zone of inhibition at 100 µg/disc in [9] was determined as 15 mm; in [10], 20 mm; in assay [19], 23 mm; in [20], 22 mm; in assay [21], 27 mm; in [22], 15 mm.
Regarding `O=C(O)c1cn(C2CC2)c2cc(N3CCNCC3)c(F)cc2c1=O` [CIPROFLOXACIN], the zone of inhibition at 100 µg/disc in assay [3] was found to be 30 mm; in assay [4] it was 31 mm; in assay [5], 32 mm; in assay [6], 33 mm; in [7], 33 mm; in [8] it was 30 mm. Besides, the zone of inhibition at 100 µg/disc came to 31 mm in assay [9] and 32 mm in assay [10]. Besides, the minimum inhibitory concentration (MIC) came to 1.56 µg/mL (≈ 4.71 µM) in [11]; 0.39 µg/mL (≈ 1.18 µM) in [12]; 0.78 µg/mL (≈ 2.35 µM) in [14]; 0.78 µg/mL (≈ 2.35 µM) in assay [15]; 0.39 µg/mL (≈ 1.18 µM) in assay [16]; 0.39 µg/mL (≈ 1.18 µM) in [17]. In assay [18], this compound registered a minimal inhibitory concentration (MIC) of 1.56 µg/mL (≈ 4.71 µM).
Compound `NNC(=O)c1ccncc1` [ISONIAZID] yielded a minimal inhibitory concentration (MIC) in assay [27] of 0.2 µg/mL (≈ 1.46 µM).
For the compound `CC(=O)N1CCN(c2ccc(OCC3COC(Cn4ccnc4)(c4ccc(Cl)cc4Cl)O3)cc2)CC1` (configuration not stated) [KETOCONAZOLE], the zone of inhibition at 100 µg/disc came out at 30 mm in assay [19], 29 mm in assay [20], 31 mm in assay [21] and 33 mm in assay [22]. For the same compound, the minimal inhibitory concentration (MIC) was found to be 1.56 µg/mL (≈ 2.94 µM) in assay [23], 0.78 µg/mL (≈ 1.47 µM) in [24], 0.78 µg/mL (≈ 1.47 µM) in [25] and 1.56 µg/mL (≈ 2.94 µM) in assay [26].
